According to patent US4877776A, “K-252 compounds” (Kyowa Hakko Kogyo Co., Ltd., priority 1987, dated 1989):
≈ marks a conversion by molar mass, not a printed value. Read-outs that look alike come from different tables or passages of the source.

Assays:
[1] = target: C-kinase (protein kinase C); assay: C-Kinase inhibitory activity test; format: biochemical; conditions: concentration at which enzyme activity was inhibited 50%
Method: (§1) Compound (I) obtained by the present invention was examined for C-kinase inhibitory activity and cell growth inhibitory activity by the following methods.
C-Kinase inhibitory activity test:
C-Kinase inhibitory activity of representative Compounds (I) was measured in accordance with the method of Y. Nishizuka, et al. [J. Biol. Chem., 257, 13341 (1982)]. The test was carried out on test compounds at varied concentrations, and the concentration at which the enzyme activity was inhibited 50% (IC50) was determined.

[2] = tested on: COLO320DM cells (human colon adenocarcinoma cell COLO320DM); assay: COLO320DM cell growth inhibition test; format: cell-based; conditions: COLO 320DM, read-out: IC50, COLO320DM cell growth inhibitory activity
Method: as §1
(§2) Cell growth inhibition tests:
(3) COLO320DM cell growth inhibition test:
COLO320DM cells (10^5 cells/ml) prepared in RPMI 1640 medium containing 10% fetal calf serum, 100 U/ml penicillin and 100 μg/ml streptomycin are put into wells of a 96-well microtiter plate in the amount of 0.1 ml per each well. Thereafter, the test is carried out in the same manner as in (1) except that the cells are counted with a microcell counter. By comparing the number of intact cells with those of the cells treated with a test compound at known concentrations, the concentration of the test compound at which growth of the cells is inhibited 50% is calculated as IC50.

[3] = tested on: MCF7 cells (human breast cancer cell MCF7); assay: MCF7 cell growth inhibition test; format: cell-based; conditions: read-out: IC50, MCF7 cell growth inhibitory activity
Method: as §1, §2
(1) MCF7 cell growth inhibition test:
(§3) MCF7 cells (4.5×10^4 cells/ml) pepared in RPMI 1640 medium containing 10% fetal calf serum, 10 μg/ml insulin and 10^-8 M estradiol are put into wells of a 96-well microtiter plate in the amount of 0.1 ml per each well. After incubation at 37° C. overnight in CO2 -incubator, 0.05 ml of a test sample appropriately diluted with the culture medium is added to each well. The cells are further cultured in CO2 -incubator, and then the culture supernatant is removed and the wells are washed once with PBS(-). Thereafter, 0.1 ml of fresh medium is added to each well, followed by culturing at 37° C. for 72 hours in CO2 -incubator. After the culture supernatant is removed, 0.1 ml of the culture medium containing 0.02% Neutral Red is added to each well, followed by culturing at 37° C. for one hour in CO2 -incubator, whereby the cells are stained. Then, the culture supernatant is removed and the cells are washed once with physiological saline. The pigment is extracted with 0.001N hydrochloric acid/30% ethanol and absorption is measured at 550 nm with a microplate reader. By comparing the absorption of intact cells with those of the cells treated with a test compound at known concentrations, the concentration of the test compound at which growth of the cells is inhibited 50% is calculated as IC50.

[4] = tested on: HeLaS3 cells (human uterine cervical cancer HeLa cells); assay: HeLaS3 cell growth inhibition test; format: cell-based; conditions: read-out: IC50, HeLaS3 cell growth inhibitory activity
Method: as §1, §2, §3
(2) HaLaS3 cell growth inhibition test:
HeLaS3 cells (3×10^4 cells/ml) prepared in MEM medium containing 10% fetal calf serum and 2 mM glutamine are put into wells of a 96-well microtiter plate in the amount of 0.1 ml per each well.
Thereafter, the test is carried out in the same manner as in (1).

histamine release = conditions: in words, from other filings; cited from earlier work
[5] = in words, from other filing; cited from earlier work
C-kinase = conditions: in words, cited from earlier work; for inhibitory activity against C-kinase: from literature or other filings; for specificity of C-kinase inhibition: from literature
[6] = in words, from literature; cited from earlier work
[7] = COLO320DM, cells counted with a microcell counter, 72 hours
[8] = HeLa S3, HeLaS3, Neutral Red, 72 hours

COC(=O)C1(O)CC2OC1(C)n1c3ccccc3c3c4c(c5c6ccccc6n2c5c31)C(=O)NC4O (centres unmarked) [Compound 5]
IC50, C-Kinase inhibitory activity [1]: 1.2 µg/mL (≈ 2.48 µM) | IC50 [2, 7]: 2.55 µg/mL (≈ 5.27 µM) | IC50 ([3]; MCF7, Neutral Red, 72 hours): 0.8 µg/mL (≈ 1.65 µM) | IC50 [4, 8]: 1.53 µg/mL (≈ 3.16 µM)

CCSC1NC(=O)c2c1c1c3ccccc3n3c1c1c2c2ccccc2n1C1CC(O)(CO)C3(C)O1 (centres unmarked) [Compound 7]
IC50, C-Kinase inhibitory activity [1]: 0.18 µg/mL (≈ 0.36 µM) | IC50 [2, 7]: 1 µg/mL (≈ 2 µM) | IC50 ([3]; MCF7, Neutral Red, 72 hours): 5.08 µg/mL (≈ 10.2 µM) | IC50 [4, 8]: 1.43 µg/mL (≈ 2.86 µM)

COC(=O)C1(O)CC2OC1(C)n1c3ccccc3c3c4c(c5c6ccccc6n2c5c31)C(=O)NC4 (centres unmarked) [Compound K-252]
IC50, C-Kinase inhibitory activity [1]: 0.016 µg/mL (≈ 0.0342 µM) | IC50 ([2]; 72 h): 0.27 µg/mL (≈ 0.578 µM) | IC50 ([3]; MCF7, 72 h): 0.51 µg/mL (≈ 1.09 µM) | activity to inhibit histamine release (histamine release): activity to inhibit histamine release | IC50 ([4]; HeLa S3, 72 h): 0.2 µg/mL (≈ 0.428 µM) | anti-allergic activity [5]: anti-allergic activity

NCCCCCCNS(=O)(=O)c1cccc2c(Cl)cccc12 [Compound W-7, N-(6-aminohexyl)-5-chloro-1-naphthalenesulfonamide]
inhibitory activity against C-kinase (C-kinase): low inhibitory activity against C-kinase | specificity of C-kinase inhibition (C-kinase): low specificity

CC12OC(CC1(O)C(=O)O)n1c3ccccc3c3c4c(c5c6ccccc6n2c5c31)CNC4=O (centres unmarked) [KT-5556]
activity to inhibit histamine release (histamine release): activity to inhibit histamine release

CN[C@@H]1C[C@H]2O[C@@](C)([C@@H]1OC)n1c3ccccc3c3c4c(c5c6ccccc6n2c5c31)C(=O)NC4 [Staurosporine]
antibacterial activity [6]: antibacterial activity

CN(C)CCCN1c2ccccc2Sc2ccc(Cl)cc21 [chlorpromazine]
inhibitory activity against C-kinase (C-kinase): low inhibitory activity against C-kinase | specificity of C-kinase inhibition (C-kinase): low specificity

ClCCN(Cc1ccccc1)Cc1ccccc1 [dibenamine]
inhibitory activity against C-kinase (C-kinase): low inhibitory activity against C-kinase | specificity of C-kinase inhibition (C-kinase): low specificity

CCCCNc1ccc(C(=O)OCCN(C)C)cc1 [tetracaine]
inhibitory activity against C-kinase (C-kinase): low inhibitory activity against C-kinase | specificity of C-kinase inhibition (C-kinase): low specificity

CN1CCN(CCCN2c3ccccc3Sc3ccc(C(F)(F)F)cc32)CC1 [trifluoperazine]
inhibitory activity against C-kinase (C-kinase): low inhibitory activity against C-kinase | specificity of C-kinase inhibition (C-kinase): low specificity
